Data as given in patent publication US20240252463A1, “METHODS OF TREATING FIBROTIC PATHOLOGIES” (Mayo Foundation for Medical Education and Research, priority 2018, published 2024).
Where a name gives a salt, the structure may show the parent alone. Read-outs that look alike come from different tables or passages of the source.

Assays:
YAP/TAZ = YAP/TAZ nuclear localization (immunofluorescence, automated imaging) in IPF patient-derived lung fibroblasts; type: cell-based, human; details: 10 μM, treated 2 hours prior to fixation; for Nuclear localization (% of total cells) IPF-1: patient sample IPF-1; for Nuclear localization (% of total cells) IPF-2: patient sample IPF-2; for Nuclear localization (% of total cells) IPF-3: patient sample IPF-3; for Nuclear localization (% of total cells) IPF-4: patient sample IPF-4
Experimental: 27A. […] IPF patient-derived lung fibroblasts cells treated 2 hours prior to fixation with diverse dopaminergic agonists (10 μM). N=4 different patient samples. % nuclear localization of YAP/TAZ was determined using automated imaging software. Scale bar represents 100 μm. 27C. cAMP measured in IPF patient-derived fibroblasts treated for 20 minutes with DHX. N=3. 27E.
(§1) ImmunofluorescenceMicroscopy: Cells were plated into 96 well plates (Corning 3603) in their specific growth media and allowed to attach (8 hours). Media was then exchanged for the indicated conditions for each experiment. Cells were fixed in 3.7% formalin (Sigma-Aldrich), permeabilized in 0.25% Triton X-100 (Sigma-Aldrich) and then blocked with 1% BSA for 1 h. Cells or tissue sections were incubated overnight with mouse monoclonal antibody against αSMA (Sigma-Aldrich F3777), and/or a rabbit monoclonal antibody against YAP/TAZ (Cell Signaling D24E4) diluted 1:200 in PBS with 1% BSA. Cells were then washed and exposed to flourescence-conjugated secondary antibodies (Invitrogen) diluted 1:1000 and DAPI (Thermo Fisher Scientific). Images were taken with a Cytation5 (BioTek) microscope. For scoring αSMA positive cells (FIG. 3b), an observer blinded to the treatment conditions counted αSMA-positive cells using a visual threshold for bright fibrous staining; a minimum of 200 cells was counted for each condition. YAP/TAZ localization was quantified (FIG. 2, 6, 8) using Gen5 (Biotek) software. Images were taken at 4× magnification of both DAPI and YAP/TAZ staining. […] Quantification of double positive (YAP/TAZ and αSMA) cells from lung tissue sections (FIG. 4d) was performed similarly; however separate thresholds were established for both YAP/TAZ and αSMA. A minimum of 4000 cells was quantified for each mouse.

αSMA = αSMA intensity (fibroblast activation) in IPF patient-derived lung fibroblasts + TGFβ; type: cell-based, human; details: 1 μM + TGFβ, treated for 72 hours; for activity at 1 µM: Homo sapiens, SMA
Experimental: as §1

[1] = patient sample IPF-1, read-out: αSMA intensity (% of DMSO control) IPF-1
[2] = patient sample IPF-2, read-out: αSMA intensity (% of DMSO control) IPF-2
[3] = patient sample IPF-3, read-out: αSMA intensity (% of DMSO control) IPF-3
[4] = patient sample IPF-4, read-out: αSMA intensity (% of DMSO control) IPF-4

| Compound | Nuclear localization (% of total cells) IPF-1 (YAP/TAZ) | Nuclear localization (% of total cells) IPF-2 (YAP/TAZ) | Nuclear localization (% of total cells) IPF-3 (YAP/TAZ) | Nuclear localization (% of total cells) IPF-4 (YAP/TAZ) | αSMA intensity (% of DMSO control) IPF-1 (αSMA; patient sample IPF-1) | αSMA intensity (% of DMSO control) IPF-2 (αSMA; patient sample IPF-2) | αSMA intensity (% of DMSO control) IPF-3 (αSMA; patient sample IPF-3) | αSMA intensity (% of DMSO control) IPF-4 (αSMA; patient sample IPF-4) | activity at 1 µM (αSMA; [1]) [%] | activity at 1 µM (αSMA; [2]) [%] | activity at 1 µM (αSMA; [3]) [%] | activity at 1 µM (αSMA; [4]) [%] |
| --- | --- | --- | --- | --- | --- | --- | --- | --- | --- | --- | --- | --- |
| Cc1cccc(C(=O)NCN2CCN(c3ccccc3C#N)CC2)c1.O=C(O)/C=C\C(=O)O [PD 168077 maleate] | 67.08 % of total cells | 42.44 % of total cells | 63.68 % of total cells | 68.4 % of total cells | 75.27 % of DMSO control | 56.15 % of DMSO control | 75.77 % of DMSO control | 66.5 % of DMSO control |  |  |  |  |
| R(−)-Propylnorapomorphine [R(−)-Propylnorapomorphine•HCl] | 28.35 % of total cells | 26.71 % of total cells | 42.74 % of total cells | 29.03 % of total cells | 5.081 % of DMSO control | 1.879 % of DMSO control | 5.561 % of DMSO control | 19.96 % of DMSO control |  |  |  |  |
| Br.C=CCN1CCc2c(cc(O)c(O)c2Br)[C@@H](c2ccccc2)C1 [R(+)-6-BROMO-APB•HBr, R(+)-6-bromo-APB] | 28.37 % of total cells | 38 % of total cells | 36 % of total cells | 25.65 % of total cells | 11.25 % of DMSO control | 2.507 % of DMSO control | 0.8506 % of DMSO control | 22.82 % of DMSO control |  |  |  |  |
| C=CCN1CCc2c(cc(O)c(O)c2Cl)C(c2ccccc2)C1 (racemic) [(±)-SKF-82958•HBr] | 29.15 % of total cells | 38 % of total cells | 38 % of total cells | 12.29 % of total cells |  |  |  |  | 11.8 | 4.97 | 2.43 | 9.33 |
| NC[C@@H]1O[C@H](C23CC4CC(CC(C4)C2)C3)Cc2c1ccc(O)c2O [A-77636•HCl•H2O] | 26.46 % of total cells | 30.88 % of total cells | 41.33 % of total cells | 37.79 % of total cells |  |  |  |  | 5.81 | 0.719 | 0.0677 | 12.4 |
| (R)-(−)-Apomorphine [(R)-(−)-Apomorphine•HCl] | 29.21 % of total cells | 31.97 % of total cells | 27.47 % of total cells | 17.86 % of total cells | 7.067 % of DMSO control | 1.173 % of DMSO control | 0.9618 % of DMSO control | 33.67 % of DMSO control |  |  |  |  |
| Br.NC1CCc2cc(O)c(O)cc2C1 (stereo not shown) [6,7-ADTN•HBr, 6,7-ADTN] | 43.89 % of total cells | 44 % of total cells | 65.5 % of total cells | 52.65 % of total cells | 37.14 % of DMSO control | 4.182 % of DMSO control | 9.909 % of DMSO control | 4.888 % of DMSO control |  |  |  |  |
| CCCN(CCC)[C@@H]1CCc2c(OC)cccc2[C@@H]1C.O=C(O)/C=C\C(=O)O [(+)-UH 232 maleate] | 61.9521 % of total cells | 68 % of total cells | 71.85 % of total cells | 67.27 % of total cells | 82.91 % of DMSO control | 63.85 % of DMSO control | 85.81 % of DMSO control | 65.71 % of DMSO control |  |  |  |  |
| R(−)-2,10,11-Trihydroxyaporphine [R(−)-2,10,11-Trihydroxyaporphine•HBr] | 13.71 % of total cells | 22.15 % of total cells | 24.15 % of total cells | 17.75 % of total cells | 2.888 % of DMSO control | 1.698 % of DMSO control | 7.646 % of DMSO control | 15.9942 % of DMSO control |  |  |  |  |
| CCCN1CCC[C@@H]2Cc3nc(N)ncc3C[C@H]21.Cl.Cl [LY-163,502•2HCl] | 73.37 % of total cells | 60.97 % of total cells | 59.43 % of total cells | 66.49 % of total cells | 88.99 % of DMSO control | 72.86 % of DMSO control | 75.3 % of DMSO control | 86.7894 % of DMSO control |  |  |  |  |
| Br.CCCN1CCc2cc(O)cc3c2[C@H]1Cc1ccc(O)c(O)c1-3 [R(−)-2,10,11-Trihydroxy-N-propyl-noraporphine] | 32.87 % of total cells | 35.25 % of total cells | 37.7 % of total cells | 25.36 % of total cells | 4.895 % of DMSO control | 8.436 % of DMSO control | 2.988 % of DMSO control | 25.61 % of DMSO control |  |  |  |  |
